Like-named read-outs stand apart in the source and are kept apart here. Non-standard residues stand in square brackets, D forms with d. Residues, ends and D or L forms follow the SMILES beside them.
Tests used:
Format in all cases: cell-based, Staphylococcus aureus
[1] = tested on: preformed S. aureus biofilms
Method: The eradicative activity of KLK and mKLK peptides against preformed S. aureus biofilms was evaluated by determining MBEC, as previously described. The 24-h biofilms developed in TSB in a 96-well plate were washed three times with 200 μl PBS solution. Concentrations of the peptides ranging from 2 to 1024 µg/ml were prepared. A volume of 100 μl of each concentration was added to a corresponding well, and plates were incubated for 18–20 h at 37 °C. Then, wells were washed with sterile PBS solution, and 100 μl of PBS solution was added. The wells were thoroughly scraped with a sterile pipette tip, vortexed and sonicated to release the biofilm cells from the well surface. Subsequently, 10 μl of well contents were plated on MHA. Colonies were counted after 20 h at 37 °C. The MBEC was defined as the lowest concentration of peptide that inhibited bacterial regrowth.

24-h S. aureus biofilms = assay: Biofilm dispersal activity (crystal violet)
Method: To investigate the dispersal activity of KLK and mKLK peptide, the 24-h S. aureus biofilms were prepared in TSB medium in the 96-well plates. Then, the final concentrations of 1×, 2×, and 4 × MIC were prepared for each peptide in the wells. After incubation at 37 °C for 12 h, plates were washed with PBS three times to discard unattached bacteria. Subsequently, plates were stained with 250 μl of 0.5% crystal violet for 20 min at room temperature. Then, the wells were washed and 250 μl 33% acetic acid was added to them. Finally, the absorbance was measured at 570 nm using a microplate reader.

S. aureus strains = tested on: S. aureus strains
Method: To investigate the inhibitory effect of KLK and mKLK peptides on bacterial surface attachment and biofilm formation, the bacterial suspension in TSB with a concentration of 10^7 CFU/ml was prepared from overnight culture. An aliquot of 100 μl of the bacterial suspension was added to wells of 96-well plates containing 100 μl of the peptides solution with concentrations of 1×, 1/2× and 1/4× MIC, resulting in the final peptides concentrations of 1/2×, 1/4× and 1/8× MIC. To investigate the inhibitory effect of the peptides on surface attachment the incubation was performed at 37 °C for 2 h and to evaluate their inhibitory activity on biofilm formation the incubation was performed at 37 °C for 24 h. The wells containing only TSB medium were used as negative controls. After incubation, the contents of the wells were removed and washed three times with PBS and the wells were stained with 200 μl of 0.1% crystal violet for 20 min. The plates were washed again and excess dye was removed. A volume of 200 μl of 95% ethanol was added to each well for 20 min and absorbance was measured at 570 nm by a microplate reader.

CC(C)C[C@@H](NC(=O)[C@H](N)CCCCN)C(=O)N[C@H](CCCCN)C(=O)N[C@H](CC(C)C)C(=O)N[C@H](CC(C)C)C(=O)N[C@H](CC(C)C)C(=O)N[C@H](CC(C)C)C(=O)N[C@H](CC(C)C)C(=O)N[C@H](CCCCN)C(=O)N[C@H](CC(C)C)C(=O)N[C@H](CCCCN)C(N)=O [KLK] (H-[dK][dL][dK][dL][dL][dL][dL][dL][dK][dL][dK]-NH2; N-terminus assumed)
MBEC ([1]; ATCC25923): 512 µg/mL | MBEC ([1]; MRSA-1): 1024 µg/mL | MBEC ([1]; MRSA-2): 1024 µg/mL | MBEC ([1]; MRSA-3): 1024 µg/mL | MBEC ([1]; MSSA-1): 512 µg/mL | MBEC ([1]; MSSA-2): 512 µg/mL | MBEC, range over isolates ([1]; preformed biofilms): 512 to 1024 µg/mL | crystal violet absorbance at 570 nm, dispersal activity, Mean±SD (24-h S. aureus biofilms; ATCC25923, 1MIC, control 2.79±0.03): 2.451±0.007 | crystal violet absorbance at 570 nm, dispersal activity, Mean±SD (24-h S. aureus biofilms; ATCC25923, 2MIC, control 2.79±0.03): 2.322±0.02 | crystal violet absorbance at 570 nm, dispersal activity, Mean±SD (24-h S. aureus biofilms; ATCC25923, 4MIC, control 2.79±0.03): 2.017±0.01 | crystal violet absorbance at 570 nm, dispersal activity, Mean±SD (24-h S. aureus biofilms; MRSA-1, 1MIC, control 1.903±0.003): 1.695±0.05 | crystal violet absorbance at 570 nm, dispersal activity, Mean±SD (24-h S. aureus biofilms; MRSA-1, 2MIC, control 1.903±0.003): 1.649±0.06 | crystal violet absorbance at 570 nm, dispersal activity, Mean±SD (24-h S. aureus biofilms; MRSA-1, 4MIC, control 1.903±0.003): 1.426±0.01 | crystal violet absorbance at 570 nm, dispersal activity, Mean±SD (24-h S. aureus biofilms; MRSA-2, 1MIC, control 2.014±0.01): 1.804±0.006 | crystal violet absorbance at 570 nm, dispersal activity, Mean±SD (24-h S. aureus biofilms; MRSA-2, 2MIC, control 2.014±0.01): 1.71±0.01 | crystal violet absorbance at 570 nm, dispersal activity, Mean±SD (24-h S. aureus biofilms; MRSA-2, 4MIC, control 2.014±0.01): 1.643±0.01 | crystal violet absorbance at 570 nm, dispersal activity, Mean±SD (24-h S. aureus biofilms; MRSA-3, 2MIC, control 1.255±0.29): 1.1±0.09 | crystal violet absorbance at 570 nm, dispersal activity, Mean±SD (24-h S. aureus biofilms; MRSA-3, 4MIC, control 1.255±0.29): 0.996±0.04 | crystal violet absorbance at 570 nm, dispersal activity, Mean±SD (24-h S. aureus biofilms; MSSA-1, 1MIC, control 1.787±0.1): 1.589±0.01 | crystal violet absorbance at 570 nm, dispersal activity, Mean±SD (24-h S. aureus biofilms; MSSA-1, 2MIC, control 1.787±0.1): 1.483±0.01 | crystal violet absorbance at 570 nm, dispersal activity, Mean±SD (24-h S. aureus biofilms; MSSA-1, 4MIC, control 1.787±0.1): 1.348±0.01 | crystal violet absorbance at 570 nm, dispersal activity, Mean±SD (24-h S. aureus biofilms; MSSA-2, 1MIC, control 2.116±0.006): 1.858±0.12 | crystal violet absorbance at 570 nm, dispersal activity, Mean±SD (24-h S. aureus biofilms; MSSA-2, 2MIC, control 2.116±0.006): 1.713±0.06 | crystal violet absorbance at 570 nm, dispersal activity, Mean±SD (24-h S. aureus biofilms; MSSA-2, 4MIC, control 2.116±0.006): 1.52±0.001 | crystal violet absorbance at 570 nm, biofilm formation, Mean±SD (S. aureus strains; ATCC25923, 1/2MIC, control 2.302±0.006): 1.654±0.006 | crystal violet absorbance at 570 nm, biofilm formation, Mean±SD (S. aureus strains; ATCC25923, 1/4MIC, control 2.302±0.006): 2.069±0.04 | crystal violet absorbance at 570 nm, biofilm formation, Mean±SD (S. aureus strains; ATCC25923, 1/8MIC, control 2.302±0.006): 2.113±0.01 | crystal violet absorbance at 570 nm, biofilm formation, Mean±SD (S. aureus strains; MRSA-1, 1/2MIC, control 2.115±0.01): 1.606±0.01 | crystal violet absorbance at 570 nm, biofilm formation, Mean±SD (S. aureus strains; MRSA-1, 1/4MIC, control 2.115±0.01): 1.924±0.004 | crystal violet absorbance at 570 nm, biofilm formation, Mean±SD (S. aureus strains; MRSA-1, 1/8MIC, control 2.115±0.01): 1.947±0.05 | crystal violet absorbance at 570 nm, biofilm formation, Mean±SD (S. aureus strains; MRSA-2, 1/2MIC, control 2.354±0.04): 1.861±0.007 | crystal violet absorbance at 570 nm, biofilm formation, Mean±SD (S. aureus strains; MRSA-2, 1/4MIC, control 2.354±0.04): 2.128±0.01 | crystal violet absorbance at 570 nm, biofilm formation, Mean±SD (S. aureus strains; MRSA-2, 1/8MIC, control 2.354±0.04): 2.187±0.002 | crystal violet absorbance at 570 nm, biofilm formation, Mean±SD (S. aureus strains; MRSA-3, 1/2MIC, control 1.541±0.02): 0.204±0.03 | crystal violet absorbance at 570 nm, biofilm formation, Mean±SD (S. aureus strains; MRSA-3, 1/4MIC, control 1.541±0.02): 1.739±0.002 | crystal violet absorbance at 570 nm, biofilm formation, Mean±SD (S. aureus strains; MRSA-3, 1/8MIC, control 1.541±0.02): 1.441±0.04 | crystal violet absorbance at 570 nm, biofilm formation, Mean±SD (S. aureus strains; MSSA-1, 1/2MIC, control 2.190±0.01): 1.609±0.03

Reference: publication PMC10817945, “Design of a novel analogue peptide with potent antibiofilm activities against Staphylococcus aureus based upon a sapecin B-derived peptide” (Scientific Reports, 2024)
